Experimental data taken from patent US20130072531A1, “SOLID DISPERSION COMPRISING AN ANTI-HIV AGENT” (AiCuris GmbH & Co. KG, priority 2009, published 2013).

Columns and labels:
[1] = Solubility studies: dissolution, paddle method, sodium laurylsulphate 0.5% (w/v) medium; assay type: physicochemical
Method: The compound of formula (I) both in crystalline form and spray dried (at T0 and after 3 weeks […]) storage at 25° C., 60% RH and 40° C., 75% RH respectively) as well as the solid dispersions of Examples 1 to 4 (at T0 and after 2 weeks […]) storage at 25° C., 60% RH and 40° C., 75% RH respectively) and Example 5 at T0 only were introduced in a VK 7000 dissolution system (VanKel, New Jersey, USA), using the paddle method, combined with a VK 8000 automatic sampling station (n=3). Sodium laurylsulphate 0.5% (w/v) was used as dissolution medium. The temperature of the medium (900 ml) was kept at 37±0.5 ° C., while the rotational speed of the paddles was set at 100 rpm. Samples (filtered using Full Flow Filters (Varian) -35 μm) of 5 ml were withdrawn at 5, 10, 15, 20, 30, 45 and 60 min and spectrophotometrically analysed at 240 nm by UV-spectrophotometry, type UV-1650 (Shimadzu, Deurne, Belgium) (w/w dilution if necessary), using an appropriate calibration curve. Each vessel contained approximately 150 mg of the compound of formula (I).

[2] = test system: wild-type and resistant HIV strains; test: Activity against HIV strains (experiences so far)
[3] = Water solubility of crystals (experiences so far); assay type: physicochemical
[4] = X-ray diffraction of solid dispersions at T0 and after storage; assay type: physicochemical; settings: after 3 weeks at 40° C., 75% RH
Method: The spray dried particles were collected in a reservoir attached to a cyclone, cooled down to room temperature and stored in sealed vials (room temperature, ambient relative humidity (RH)) prior to their characterisation at T0. After characterisation at T0, the spray dried solids were stored in open vials for 2 weeks (3 weeks for Comparative Example 1) in desiccators at 25° C., 60% RH and 40° C., 75% RH. X-ray diffraction (D-500, Siemens, Germany) with CuKα radiation (0.154 nm) was performed on physical mixtures of the compound of formula (I) with HPMC ES, HPC LF, HPMCP HP-50 and PVP K30 and the corresponding solid dispersions (at T0 and after 2 weeks […]) storage at both conditions), as well as spray dried compound of formula (I) without polymer (storage for three weeks under the two conditions). The angular range (2θ) varied from 15 to 60° with steps of 0.02° and the measuring time was 1 s/step.

[5] = Storage experiments, visual inspection; assay type: physicochemical; settings: open vials, 2 weeks (3 weeks Comparative Example 1), 25° C., 60% RH and 40° C., 75% RH
Method: The spray dried particles were collected in a reservoir attached to a cyclone, cooled down to room temperature and stored in sealed vials (room temperature, ambient relative humidity (RH)) prior to their characterisation at T0. After characterisation at T0, the spray dried solids were stored in open vials for 2 weeks (3 weeks for Comparative Example 1) in desiccators at 25° C., 60% RH and 40° C., 75% RH.

SMILES | compound of formula (I) dissolved / released after 60 minutes ([1]; fresh (T0), sodium laurylsulphate 0.5% (w/v), 900 ml, 37 °C, 100 rpm, 60 min) | activity against wild-type and resistant HIV strains [2] | water solubility of crystals [3] | compound of formula (I) dissolved after 60 minutes after storage ([1]; after storage at 40° C., 75% RH for three weeks, 60 min) | compound of formula (I) dissolved / released after 30 minutes ([1]; fresh (T0), sodium laurylsulphate 0.5% (w/v), 900 ml, 37 °C, 100 rpm, 30 min) | formation of the crystalline form of the compound of formula (I) (X-ray) [4] | storage stability to visual inspection (colouration) [5]
O=C1CN(C(=O)c2cc(-c3cc(F)cc(Cl)c3)n(-c3ccc(F)c(Cl)c3)n2)CN1 [compound of formula (I)] | about 40% | highly active | only sparingly water-soluble | – | – | – | –
O=C1CN(C(=O)c2cc(-c3cc(F)cc(Cl)c3)n(-c3ccc(F)c(Cl)c3)n2)CN1 [Comparative Example 1] | – | – | – | 35% | about 60% | formation of a large amount of the crystalline form | storage stable
